Experimental data taken from US20080280934A1, “Method of Preparing Porphyrin Derivatives, Porphyrin Derivatives, Uses Thereof and Pharmaceutical Compositions” (priority 2003, published 2008).

Key:
[1] = maximum absorption wavelength (λmax); format: physicochemical; details: for maximum absorption wavelength: in both dichloromethane and methanol; for λmax / absorption maximum: solvent not stated
Method: Refluxing of pure 4a in trichloroacetic acid at 175° C. leads surprising to a new peri-annulated quinoporphyrin-product (5a). The oxidizing agent performing the final oxidation (closing the heterocyclic ring of the quinoline-ring system) to result in the new product is oxygen from the air, similar to what is known for other reactions involving porphyrins (see Woodward, J., Am.. Chem. Soc.. (1960) […]., pp. 3800-3802). The λmax of this new compound 5a is, compared with mesoporphyrindimethylester 1, shifted towards the red (respective values for λmax are: 567 nm and 638 nm).
If desired the metal ion used (here nickel) may be removed in a conventional manner (5 min. conc. sulphuric acid at room temperature, the time required to dissolve completely), yielding the corresponding compounds 6a-6d. Noteworthy are the maximum absorption wavelengths for 6a, 6b, 6c and 6d which are 681, 688, 688 and 683 nm respectively (in both dichloromethane and methanol),which are very long for entirely unsaturated porphyrin ring systems. Benzylation of the quinoline-ring system nitrogen with benzyl bromide/ potassium iodide leads to formation of a cationic benzylated quinoporphyrin (18 N-benzylquinolinium[4,4a,5,6-efg]-annulated mesoporphyrin dimethylester with an absorption maximum at 755 nm. Hydrolysation of this compound yields N-benzylquinolinium[4,4a,5,6-efg]-annulated mesoporphyrin (19).

[2] = solubility of the purified porphyrin in demineralized water; format: physicochemical; details: at about pH 8, demineralized water
Method: A solution of 0.61 gram of 6a in 25 ml tetrahydrofuran (THF) was mixed with a solution of 0.20 gram sodium hydroxide in 120 ml of water and refluxed during 1 hour. The reaction was followed with silicagel thin layer chromatography using THF as the eluens. When the reaction is finished THF and water were removed by distillation under reduced pressure until the volume was approximately 20 ml. The crude product was purified over 10 grams of CM Sephadex cation exchanger (bead size 40-120 μm) from Sigma-Aldrich, which was first treated with 1 M hydrochloric acid and then washed with demineralized water. First the porphyrin solution was carried onto the sephadex gel, and washed with demineralized water to remove salts. The purified porphyrin was eluted with 1% ammoniumhydroxide in water. The resulting brown solution was evaporated to dryness, then demineralized water was added and again the solution was evaporated to dryness to remove traces of ammonia. […] Yet this solubility of about 0.5 mg/ml at about pH 8 is better than for other porphyrin compounds such as MTHPC which is currently used in photodynamic therapy. 0.45 grams (77%) of the dicarboxylic acid 7a was obtained.

| maximum absorption wavelength [1] [nm] | λmax / absorption maximum [1] [nm] | further results | Substance |
| --- | --- | --- | --- |
| 688 | – | – | 2′-methoxycarbonylquino[4,4a,5,6-jkl]-annulated 12-demethyl-13-de[2-(methoxycarbonyl)ethyl]mesoporphyrin dimethylester [6b] |
| 688 | – | – | 2′-methoxycarbonylquino[4,4a,5,6-qrs]-annulated 18-demethyl-17-de[2-(methoxycarbonyl)ethyl]mesoporphyrin dimethylester [6c] |
| – | 755 | – | N-benzylquinolinium[4,4a,5,6-efg]-annulated mesoporphyrin dimethylester [compound 18] |
| – | 567 | – | mesoporphyrin dimethylester [compound 1, reference compound] |
| 683 | – | – | quino[4,4a,5,6-abt]-annulated 2-demethyl-3-deethylmesoporphyrin dimethylester [6d] |
| – | – | solubility [2]: about 0.5 mg/ml | quino[4,4a,5,6-efg]-annulated 7-demethyl-8-deethylmesoporphyrin [7a] |
| 681 | – | – | quino[4,4a,5,6-efg]-annulated 7-demethyl-8-deethylmesoporphyrin dimethylester [6a] |
| – | 638 | – | quino[4,4a,5,6-efg]-annulated 7-demethyl-8-deethylmesoporphyrin dimethylester nickel (II) complex [5a] |
